Where two headings read alike, the source gives them in different places.
Experiments:
[1] = tested on: IL-1, TNF, IL-1RA and sTNFr; test: Serum IL-1, TNF, IL-1RA and sTNFr during treatment of Dengue virus infection (Example 2); type: in vivo, BALB/c mice
[2] = 58 mg/kg i.m. during 17 day period without virus injection
[3] = 7 day period without viral infection
[4] = day 1, 58 mg/kg i.m. daily day 3-5 after infection (Group 4)
[5] = day 2, 58 mg/kg i.m. daily day 2-5 after infection (Group 3)
[6] = day 2, 58 mg/kg i.m. daily day 3-5 after infection (Group 4)
[7] = day 3, 58 mg/kg i.m. daily day 2-5 after infection (Group 3)
[8] = day 3, 58 mg/kg i.m. daily day 3-5 after infection (Group 4)
[9] = day 4, 58 mg/kg i.m. daily day 2-5 after infection (Group 3)
[10] = day 4, 58 mg/kg i.m. daily day 3-5 after infection (Group 4)
[11] = day 5, 58 mg/kg i.m. daily day 2-5 after infection (Group 3)
[12] = day 5, 58 mg/kg i.m. daily day 3-5 after infection (Group 4)

With `CC1c2cccc(O)c2C(=O)C2=C(O)C3(O)C(=O)C(C(N)=O)=C(O)C(N(C)C)C3C(O)C21.O` (stereo not shown) [Doxycycline, 4-(Dimethylamino)-1,4,4a,5,5a,6,11,12a-octahydro-3,5,10,12,12a-pentahydroxy-6-methyl-1, 11-dioxo-2-naphthacenecarboxamide monohydrate] as the compound, how does the IL-1 [1, 4] read?
Its IL-1 is 10.6 pg/mL.

What about the “IL-1/IL-IRA (I)” value [1, 4] of the same compound?
The value was 0.151.

What about the IL-IRA [1, 4] of the same compound?
Its IL-IRA is 70 pg/mL.

What about the TNF [1, 4] of the same compound?
The TNF was 8.19 pg/mL.

And the “TNF/sTNF (II)” value [1, 4]?
Its value is 0.256.

And the sTNFrl [1, 4]?
The sTNFrl was 32 pg/mL.

And the “I + II” value [1, 5]?
The value was 0.985.

What about the IL-1 [1, 5] of the same compound?
The IL-1 was 16.8 pg/mL.

And the “IL-1/IL-IRA (I)” value [1, 5]?
Its value is 0.258.

What about the IL-IRA [1, 5] of the same compound?
Its IL-IRA is 65 pg/mL.

And the TNF [1, 5]?
The TNF was 26.9 pg/mL.

What about the “TNF/sTNF (II)” value [1, 5] of the same compound?
Its value is 0.727.

And the sTNFrl [1, 5]?
The sTNFrl was 37 pg/mL.

What about the “I + II” value [1, 6] of the same compound?
The value was 0.985.

What about the IL-1 [1, 6] of the same compound?
The IL-1 was 16.8 pg/mL.

And the “IL-1/IL-IRA (I)” value [1, 6]?
The value was 0.258.

What about the IL-IRA [1, 6] of the same compound?
The IL-IRA was 65 pg/mL.

And the TNF [1, 6]?
Its TNF is 26.9 pg/mL.

What about the “TNF/sTNF (II)” value [1, 6] of the same compound?
Its value is 0.727.

And the sTNFrl [1, 6]?
The sTNFrl was 37 pg/mL.

What about the “I + II” value [1, 7] of the same compound?
Its value is 0.643.

And the IL-1 [1, 7]?
Its IL-1 is 17.9 pg/mL.

And the “IL-1/IL-IRA (I)” value [1, 7]?
The value was 0.211.

And the IL-IRA [1, 7]?
Its IL-IRA is 85 pg/mL.

And the TNF [1, 7]?
Its TNF is 19.89 pg/mL.

What about the “TNF/sTNF (II)” value [1, 7] of the same compound?
The value was 0.432.

And the sTNFrl [1, 7]?
Its sTNFrl is 46 pg/mL.

And the “I + II” value [1, 8]?
Its value is 1.161.

What about the IL-1 [1, 8] of the same compound?
Its IL-1 is 26.7 pg/mL.

And the “IL-1/IL-IRA (I)” value [1, 8]?
The value was 0.381.

What about the IL-IRA [1, 8] of the same compound?
The IL-IRA was 70 pg/mL.

What about the TNF [1, 8] of the same compound?
Its TNF is 35.1 pg/mL.

And the “TNF/sTNF (II)” value [1, 8]?
Its value is 0.780.

What about the sTNFrl [1, 8] of the same compound?
Its sTNFrl is 45 pg/mL.

What about the “I + II” value [1, 9] of the same compound?
The value was 0.809.

What about the IL-1 [1, 9] of the same compound?
Its IL-1 is 24.18 pg/mL.

What about the “IL-1/IL-IRA (I)” value [1, 9] of the same compound?
Its value is 0.318.

What about the IL-IRA [1, 9] of the same compound?
Its IL-IRA is 76 pg/mL.

What about the TNF [1, 9] of the same compound?
Its TNF is 24.57 pg/mL.

What about the “TNF/sTNF (II)” value [1, 9] of the same compound?
The value was 0.491.

What about the sTNFrl [1, 9] of the same compound?
The sTNFrl was 50 pg/mL.

And the “I + II” value [1, 10]?
The value was 1.375.

What about the IL-1 [1, 10] of the same compound?
Its IL-1 is 30.42 pg/mL.

And the “IL-1/IL-IRA (I)” value [1, 10]?
Its value is 0.400.

And the IL-IRA [1, 10]?
Its IL-IRA is 76 pg/mL.

What about the TNF [1, 10] of the same compound?
The TNF was 46.8 pg/mL.

And the “TNF/sTNF (II)” value [1, 10]?
Its value is 0.975.

What about the sTNFrl [1, 10] of the same compound?
Its sTNFrl is 48 pg/mL.

And the “I + II” value [1, 11]?
The value was 4.14.

What about the IL-1 [1, 11] of the same compound?
Its IL-1 is 30.42 pg/mL.

And the “IL-1/IL-IRA (I)” value [1, 11]?
Its value is 0.390.

What about the IL-IRA [1, 11] of the same compound?
Its IL-IRA is 78 pg/mL.

And the TNF [1, 11]?
The TNF was 262.5 pg/mL.

What about the “TNF/sTNF (II)” value [1, 11] of the same compound?
The value was 3.75.

What about the sTNFrl [1, 11] of the same compound?
Its sTNFrl is 70 pg/mL.

And the “I + II” value [1, 12]?
Its value is 5.256.

And the IL-1 [1, 12]?
The IL-1 was 36.6 pg/mL.

And the “IL-1/IL-IRA (I)” value [1, 12]?
Its value is 0.435.

What about the IL-IRA [1, 12] of the same compound?
The IL-IRA was 84 pg/mL.

And the TNF [1, 12]?
The TNF was 337.5 pg/mL.

What about the “TNF/sTNF (II)” value [1, 12] of the same compound?
The value was 4.821.

What about the sTNFrl [1, 12] of the same compound?
The sTNFrl was 70 pg/mL.

And the “toxicity to control groups” value [2]?
The value was “not toxic”.

What about the survival ([2]; of 6 guinea pigs) of the same compound?
Its survival is 6.

And the “toxicity to control groups” value [3]?
The value was “not toxic”.

And the death ([3]; of 20 mice)?
Its death is 0.

What about the survival ([3]; of 20 mice) of the same compound?
The survival was 20.
